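Following 48 hours of exposure in 96-well plates, responses at five concentrations were used to interpolate endpoints linearly. GI50 marks 50% less growth. Definition used: TGI = concentration required for complete inhibition of growth.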
Legend:
Assay in all cases: inhibition of tumour cell growth, NCI panel, 48 h
MOLT-4 leukemia = system: MOLT-4 leukemia
PC-3 prostate = system: PC-3 prostate
OVCAR-5 ovarian = system: OVCAR-5 ovarian
SK-MEL-5 melanoma = system: SK-MEL-5 melanoma
OVCAR-3 ovarian = system: OVCAR-3 ovarian
SK-MEL-28 melanoma = system: SK-MEL-28 melanoma
SF-539 CNS = system: SF-539 CNS
HCT-15 colon = system: HCT-15 colon
NCI-H23 lung = system: NCI-H23 lung
M14 melanoma = system: M14 melanoma
BT-549 breast = system: BT-549 breast
RPMI-8226 leukemia = system: RPMI-8226 leukemia
SF-268 CNS = system: SF-268 CNS
786-0 renal = system: 786-0 renal
K-562 leukemia = system: K-562 leukemia
HL-60(TB) leukemia = system: HL-60(TB) leukemia
SNB-75 CNS = system: SNB-75 CNS
MDA-MB-435 = system: MDA-MB-435
MALME-3M melanoma = system: MALME-3M melanoma
UACC-257 melanoma = system: UACC-257 melanoma
CCRF-CEM leukemia = system: CCRF-CEM leukemia
SR leukemia = system: SR leukemia
HOP-62 NSCLC = system: HOP-62 NSCLC
A549 NSCLC = system: A549 NSCLC
DU-145 prostate = system: DU-145 prostate
OVCAR-4 ovarian = system: OVCAR-4 ovarian
NCI-H226 lung = system: NCI-H226 lung
U251 CNS = system: U251 CNS
ACHN renal = system: ACHN renal
HT29 colon = system: HT29 colon
HCT-116 colon = system: HCT-116 colon
LOX IMVI melanoma = system: LOX IMVI melanoma
T-47D breast = system: T-47D breast
NCI/ADR-RES ovarian = system: NCI/ADR-RES ovarian
UO-31 renal = system: UO-31 renal
NCI-H522 lung = system: NCI-H522 lung
OVCAR-8 ovarian = system: OVCAR-8 ovarian
HCC-2998 colon = system: HCC-2998 colon
EKVX NSCLC = system: EKVX NSCLC
NCI-H460 lung = system: NCI-H460 lung
RXF 393 renal = system: RXF 393 renal
SK-OV-3 ovarian = system: SK-OV-3 ovarian
CAKI-1 renal = system: CAKI-1 renal
HOP-92 NSCLC = system: HOP-92 NSCLC
MDA-MB-231 breast = system: MDA-MB-231 breast
KM12 colon = system: KM12 colon
A498 renal = system: A498 renal
COLO 205 colon = system: COLO 205 colon
HS 578T breast = system: HS 578T breast
SF-295 CNS = system: SF-295 CNS
IGROV1 ovarian = system: IGROV1 ovarian
MDA-MB-468 breast = system: MDA-MB-468 breast
SN12C renal = system: SN12C renal
SW-620 colon = system: SW-620 colon
SNB-19 CNS = system: SNB-19 CNS
MCF7 breast = system: MCF7 breast
SK-MEL-2 melanoma = system: SK-MEL-2 melanoma
TK-10 renal = system: TK-10 renal
UACC-62 melanoma = system: UACC-62 melanoma

## CNC(=O)c1cccc(N2CCc3c2ccc(NC(=O)Nc2ccc(N4CCN(C)CC4)c(C(F)(F)F)c2)c3F)c1
MOLT-4 leukemia
  GI50: 1.7 µM
  TGI: 20.9 µM
PC-3 prostate
  GI50: 3.91 µM
  TGI: 12.1 µM
OVCAR-5 ovarian
  GI50: 5.45 µM
  TGI: 10.3 µM
SK-MEL-5 melanoma
  GI50: 5.43 µM
  TGI: 10.4 µM
OVCAR-3 ovarian
  GI50: 5.04 µM
  TGI: 11 µM
SK-MEL-28 melanoma
  GI50: 4.99 µM
  TGI: 9.81 µM
SF-539 CNS
  GI50: 1.18 µM
  TGI: 4.94 µM
HCT-15 colon
  GI50: 3.92 µM
  TGI: 9.15 µM
NCI-H23 lung
  GI50: 5.97 µM
  TGI: 11.8 µM
M14 melanoma
  GI50: 6.78 µM
  TGI: 14.3 µM
BT-549 breast
  GI50: 5.14 µM
  TGI: 11.1 µM
RPMI-8226 leukemia
  GI50: 1.59 µM
  TGI: > 36.5 µM
SF-268 CNS
  GI50: 4.87 µM
  TGI: 12.3 µM
786-0 renal
  GI50: 1.99 µM
  TGI: 8.25 µM
K-562 leukemia
  GI50: 6.69 µM
  TGI: > 36.5 µM
HL-60(TB) leukemia
  GI50: 7.63 µM
  TGI: 25.7 µM
SNB-75 CNS
  GI50: 1.25 µM
  TGI: 6.93 µM
MDA-MB-435
  GI50: 5.28 µM
  TGI: 10.5 µM
MALME-3M melanoma
  GI50: 4.17 µM
  TGI: 8.7 µM
UACC-257 melanoma
  GI50: 6.1 µM
  TGI: 12 µM
CCRF-CEM leukemia
  GI50: 5.43 µM
  TGI: 29.3 µM
SR leukemia
  GI50: 5.74 µM
  TGI: > 36.5 µM
HOP-62 NSCLC
  GI50: 5.23 µM
  TGI: 11.9 µM
A549 NSCLC
  GI50: 5.75 µM
  TGI: 13.9 µM
DU-145 prostate
  GI50: 5.68 µM
  TGI: 11.3 µM
OVCAR-4 ovarian
  GI50: 5.07 µM
  TGI: 11.5 µM
NCI-H226 lung
  GI50: 6.12 µM
  TGI: 14.6 µM
U251 CNS
  GI50: 3.73 µM
  TGI: 8.59 µM
ACHN renal
  GI50: 5.61 µM
  TGI: 10.5 µM
HT29 colon
  GI50: 1.44 µM
  TGI: 8.51 µM
HCT-116 colon
  GI50: 5.06 µM
  TGI: 13.8 µM
LOX IMVI melanoma
  GI50: 5.15 µM
  TGI: 10.3 µM
T-47D breast
  GI50: 6.33 µM
  TGI: 19.3 µM
NCI/ADR-RES ovarian
  GI50: 7.02 µM
  TGI: 17.5 µM
UO-31 renal
  GI50: 5.86 µM
  TGI: 10.8 µM
NCI-H522 lung
  GI50: 6.46 µM
  TGI: 13.9 µM
OVCAR-8 ovarian
  GI50: 7.5 µM
  TGI: 16.4 µM
HCC-2998 colon
  GI50: 5.3 µM
  TGI: 10.3 µM
EKVX NSCLC
  GI50: 5.05 µM
  TGI: 10.2 µM
NCI-H460 lung
  GI50: 5.27 µM
  TGI: 11.6 µM
RXF 393 renal
  GI50: 0.976 µM
  TGI: 2.65 µM
SK-OV-3 ovarian
  GI50: 5.93 µM
  TGI: 11.7 µM
CAKI-1 renal
  GI50: 6.04 µM
  TGI: 12 µM
HOP-92 NSCLC
  GI50: 5.36 µM
  TGI: 11.6 µM
MDA-MB-231 breast
  GI50: 2.93 µM
  TGI: 7.59 µM
KM12 colon
  GI50: 0.166 µM
  TGI: 6.5 µM
A498 renal
  GI50: 5.36 µM
  TGI: 10.4 µM
COLO 205 colon
  GI50: 6.46 µM
  TGI: 17.5 µM
HS 578T breast
  GI50: 1.46 µM
  TGI: 8.54 µM
SF-295 CNS
  GI50: 0.717 µM
  TGI: 1.7 µM
IGROV1 ovarian
  GI50: 6.21 µM
  TGI: 11.7 µM
MDA-MB-468 breast
  GI50: 5.41 µM
  TGI: 11.3 µM
SN12C renal
  GI50: 5.81 µM
  TGI: 11.1 µM
SW-620 colon
  GI50: 1.19 µM
  TGI: 5.23 µM
SNB-19 CNS
  GI50: 5.48 µM
  TGI: 10.7 µM
MCF7 breast
  GI50: 4.63 µM
  TGI: 10.3 µM
SK-MEL-2 melanoma
  GI50: 6.15 µM
  TGI: 11.8 µM
TK-10 renal
  GI50: 6.21 µM
  TGI: 11.6 µM
UACC-62 melanoma
  GI50: 5.9 µM
  TGI: 10.8 µM
